Among the data in US10383880B2 (Reset Therapeutics, Inc., priority 2012, dated 2019) are EC50 values, retold here.

SMILES strings stand for the structures.

A word on the EC50: it is the concentration that produces a half-maximal response. A higher EC50 goes with lower potency in that assay.

The test relates to Per2-dLuc U2OS reporter cells. Description: Per2 assay for evaluating the potency of test compounds (high-throughput circadian assay). The test is classed as cell-based. The settings on record: Homo sapiens, U2OS, stable U2OS reporter cells harboring Per2-dLuc; luminescence monitored over 4-5 days at 35° C. As for the experimental part:
Compounds were screened by using a high-throughput circadian assay system as previously described in Zhang, E. E. et al. Cell, 2009, 139, 199-210. In brief, stable U2OS reporter cells harboring Per2-dLuc were plated at a density of 8,000 cells/well in Corning 96-well, solid white, flat bottom, TC-treated microplates (Corning®), and incubated for 24 hours at 37° C. in the presence of 5% CO2. The cells were then synchronized by serum shock by media exchange to a minimal explant media (10 mM HEPES (pH 7.0), 2% B27, 1×PSG (Invitrogen®), and 1.0 mM beetle luciferin (Promega®)) followed by the addition of the compounds of formula I dissolved in dimethylsulfoxide (0.5% final dimethylsulfoxide concentration). Gene expression was monitored by measuring luminescence (TecanR M200) over 4-5 days at 35° C. The period, amplitude, and phase of the associated circadian rhythms were determined using Multicycle™ software (Actimetrics, Inc). EC50 values of the compounds of formula I were calculated using Graphpad™ (Prism®).
Take `CC(C)(C(O)Cn1c2ccccc2c2ccccc21)N1CCCS1(=O)=O` (stereo not drawn) [Compound 243, 2-(4-(9H-Carbazol-9-yl)-3-hydroxy-2-methylbutan-2-yl)-isothiazolidine-1,1-dioxide]: the EC50 was 42 nM.
With `CC(O)(CN(C1CCC1)S(C)(=O)=O)Cn1c2ccc(F)cc2c2cc(F)ccc21` (stereo not drawn) [Compound 149, N-Cyclobutyl-N-(3-(3,6-difluoro-9H-carbazol-9-yl)-2-hydroxy-2-methylpropyl)methanesulfonamide] the figure was 7620 nM; with `CS(=O)(=O)N(CC(O)Cn1c2ccccc2c2ccccc21)c1cccnn1` (stereo not drawn) [Compound 79, N-(3-(9H-Carbazol-9-yl)-2-hydroxypropyl)-N-(pyridazin-3-yl)methanesulfonamide], 2800 nM.
Turning to `CC(O)(CN1CCCN(C2CCCC2)S1(=O)=O)Cn1c2ccc(F)cc2c2cc(F)ccc21` (stereo not drawn) [Compound 221, 2-(3-(3,6-Difluoro-9H-carbazol-9-yl)-2-hydroxy-2-methylpropyl)-6-cyclopentyl-1,2,6-thiadiazinane-1,1-dioxide], the EC50 is 5520 nM.
As for `CC1CCCC1N(CC(O)Cn1c2ccc(F)cc2c2cc(F)ccc21)S(C)(=O)=O` (stereo not drawn) [Compound 193A, N-(3-(3,6-Difluoro-9H-carbazol-9-yl)-2-hydroxypropyl)-N-(2-methylcyclopentyl)methanesulfonamide], it took 427 nM to reach a half-maximal effect (EC50).
Next, `O=S1(=O)CCc2ccccc2N1CC(O)Cn1c2ccccc2c2ccccc21` (stereo not drawn) [Compound 37, N-(3-(9H-Carbazol-9-yl)-2-hydroxypropyl)-3,4-dihydro-1H-benzo[c][1,2]thiazine 2,2-dioxide]: 34 nM.
`CS(=O)(=O)N(CC(O)Cn1c2ccccc2c2ccccc21)c1ccc2ccccc2c1` (stereo not drawn) [Compound 48, N-(3-(9H-Carbazol-9-yl)-2-hydroxypropyl)-N-(naphthalen-2-yl)methanesulfonamide] had an EC50 of 1500 nM.
`O=S1(=O)CCCN1CC(O)Cn1c2cc(F)ccc2c2ccc(F)cc21` (stereo not drawn) [Compound 92, N-(3-(2,7-Difluoro-9H-carbazol-9-yl)-2-hydroxypropyl)-isothiazolidine-1,1-dioxide] displayed an EC50 of 40 nM.
With `O=S1(=O)N(CC(O)Cn2c3ccccc3c3ccccc32)CCCC1(F)F` (stereo not drawn) [Compound 122, 2-(3-(9H-Carbazol-9-yl)-2-hydroxypropyl)-6,6-difluoro-1,2-thiazinane-1,1-dioxide] the figure was 329 nM.
Next, `CC(C)(N(CC(O)Cn1c2ccccc2c2ccccc21)S(C)(=O)=O)C(F)(F)F` (stereo not drawn) [Compound 148, N-(3-(9H-Carbazol-9-yl)-2-hydroxypropyl)-N-(1,1,1-trifluoro-2-methylpropan-2-yl)methanesulfonamide]: 489 nM; `CS(=O)(=O)NCC(O)Cn1c2ccccc2c2ccccc21` (stereo not drawn) [Compound 113, N-(3-(9H-Carbazol-9-yl)-2-hydroxypropyl)methanesulfonamide]: 123 nM.
Compound `O=S(=O)(CC1CC1)N(Cc1ccco1)CC(O)Cn1c2ccccc2c2ccccc21` (stereo not drawn) [Compound 15, N-(3-(9H-Carbazol-9-yl)-2-hydroxypropyl)-1-cyclopropyl-N-(furan-2-ylmethyl)methanesulfonamide] displayed an EC50 of 592 nM.
Next, `O=S1(=O)CCCN1CC(O)Cn1c2cc(F)ccc2c2c(F)cccc21` (stereo not drawn) [Compound 97, N-(3-(2,5-Difluoro-9H-carbazol-9-yl)-2-hydroxypropyl)-isothiazolidine-1,1-dioxide]: 319 nM; `CS(=O)(=O)N(CC(O)Cn1c2ccccc2c2ccccc21)C1CC(F)(F)C1` (stereo not drawn) [Compound 133, N-(3-(9H-Carbazol-9-yl)-2-hydroxypropyl)-N-(3,3-difluorocyclobutyl)methanesulfonamide]: 1530 nM; `CS(=O)(=O)N(CC(O)Cn1c2ccccc2c2ccccc21)CC1CC2CCC1O2` (single isomer, unassigned) [Compound 69, N-(7-Oxabicyclo[2.2.1]heptan-2-ylmethyl)-N-(3-(9H-carbazol-9-yl)-2-hydroxypropyl)methanesulfonamide]: 759 nM.
